Results as given in patent publication US20240315993A1, “ANTIPARASITIC COMPOUNDS” (Intervet Inc., priority 2021, published 2024).
Read-outs that look alike come from different tables or passages of the source.

Tests used:
Dermacenter variabilis = assay: Cattle - efficacy against multi-host ticks (Dermacenter variabilis); format: in vivo; details: for effective in treating existing tick infestations: 5 mg/kg, both administration routes (topical, subcutaneous)
Experimental: (§1) Cattle were treated subcutaneously or topically (pour-on) at a dose of 5 mg/kg bodyweight of a test compound (Day 0). As subcutaneous formulation NMP 60%/PEG300 40% was used, and as pour-on formulation DMA 92%/DEET 8% was used. Cattle of the negative control group received only the formulation excipients of both formulations (SC, pour-on).
(§2) Cattle were locally infested with 30 to 40 unfed adult ticks each of Rhipicephalus appendiculatus and Dermacenter variabilis (for both species sex ratio 1:1), by placing the ticks in an ear sleeve (R. appendiculatus) or a stockinet patch attached to the body side (D. variabilis) once before treatment, and at different time points after treatment. Free (i.e., non-attached ticks) were removed from ear sleeves/stockinet patches two days after each infestation and were excluded from the efficacy calculation.
(§3) Compounds with efficacy ≥80 percent were found active.

[1] = system: Mobile stages of sea lice (pre-adults, adults of Lepeophtheirus salmonis); assay: Adult sea lice contact assay; details: read-out: EC50 (sea lice inhibition, dead+damaged)
Experimental: Mobile stages of sea lice (i.e., pre-adults, adults of Lepeophtheirus salmonis) were exposed to seawater spiked with declining concentrations of a test compound (dissolved in a PEG sea-water mixture). Sea lice inhibition (% of dead+damaged sea lice) was assessed after approximately 1 and 24 hours of continuous exposure in comparison to a negative (solvent) control group.

[2] = system: bed bugs (Cimex lectularius); assay: Guinea pig - efficacy against bed bug; format: in vivo
Procedure, shortened: (§4)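 Guinea pigs given 5 mg/kg test compound orally (gavage) or s.c. in 10% DMF/emulsifier plus 90% water for injection, with local co-infestations of Ornithodoros moubata juveniles and Cimex lectularius at several post-treatment times. Engorged parasites scored dead/damaged about 24 h after collection; % inhibition versus pretreatment baseline by modified Schneider-Orelli formula.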

Rhipicephalus microplus = assay: Cattle - efficacy against one-host tick; format: in vivo
Procedure, shortened: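 Cattle infested whole-body with up to 3000 R. microplus larvae two or three times weekly around Day 0, then given 1 mg/kg subcutaneously or topically (spray or pour-on); controls got excipients only. Engorged females dropping were counted daily; efficacy by ADEQ per WAAVP guidelines, onset/duration as first/last day ≥80%.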

Lepeophtheirus salmonis = assay: Salmon - in vivo efficacy against sea lice using gavage administration; details: po, 168 h
[3] = system: Copepodids (juvenile sea lice stage of Lepeophtheirus salmonis); assay: Juvenile sea lice contact assay; details: Lepeophtheirus salmonis, read-out: Sea lice inhibition (% of dead+damaged copepodids)
Experimental: Copepodids (juvenile sea lice stage of Lepeophtheirus salmonis) were exposed to seawater spiked with declining concentrations of a test compound (dissolved in a DMSO sea-water mixture). Sea lice inhibition (% of dead+damaged copepodids) was assessed after approximately 24 hours of continuous exposure. The vitality of used parasites was confirmed in a negative (solvent) control group.

[4] = system: Rhipicephalus sanguineus or Haemaphysalis elliptica ticks; assay: Dog - efficacy against ticks; format: in vivo; details: for efficacy against ticks in dogs (conclusion): 10 mg/kg; for therapeutic efficacy against ticks (active = efficacy ≥80 percent): D2; for active against ticks up to (efficacy ≥80 percent): repeated infestations
Experimental: Beagle dogs were infested (whole body) with 80 Ctenocephalides felis fleas and 50 Rhipicephalus sanguineus or Haemaphysalis elliptica ticks (sex ratio 1:1) two days before the treatment day (Day 0), and repeatedly thereafter. Dogs of treatment groups were treated with 10 mg/kg bodyweight of a test compound orally (compound weighed in gelatin capsule), topically (spot-on, DMA 92%/DEET 8%) or subcutaneously (PEG 200 90%/water for injection 10%). Dogs of the negative control group received only an empty gelatin capsule orally and the spot-on formulation excipients topically.
as §3

[5] = system: Rhipicephalus appendiculatus; assay: Cattle - efficacy against multi-host ticks (Rhipicephalus appendiculatus); format: in vivo; details: for effective in treating existing tick infestations: 5 mg/kg, both administration routes (topical, subcutaneous)
Experimental: as §1, §2, §3

[6] = system: juvenile soft ticks (Ornithodoros moubata); assay: Guinea pig - efficacy against argaside tick; format: in vivo
Procedure, shortened: as §4

[7] = 5 mg/kg subcutaneous, re-infested after 7 days
[8] = 5 mg/kg subcutaneous, re-infested after 14 days
[9] = 5 mg/kg subcutaneous, re-infested after 21 days
[10] = 5 mg/kg subcutaneous, re-infested after 28 days
[11] = 5 mg/kg subcutaneous, therapeutic, Day 2
[12] = 5 mg/kg topical pour-on, re-infested after 7 days
[13] = 5 mg/kg topical pour-on, re-infested after 14 days
[14] = 5 mg/kg topical pour-on, re-infested after 21 days
[15] = 5 mg/kg topical pour-on, therapeutic, Day 2
[16] = 5 mg/kg subcutaneous, after 7 days
[17] = 5 mg/kg subcutaneous, after 10 days
[18] = 1 mg/kg topical (Compound 4: spray solution; others: DMA 92%/DEET 8% pour-on)
[19] = 5 mg/kg subcutaneous, re-infested after 35 days
[20] = 5 mg/kg topical pour-on, re-infested after 28 days
[21] = 5 mg/kg topical pour-on, re-infested after 35 days
[22] = 5 mg/kg, at least until Day 10, both administration routes (oral, subcutaneous)
[23] = 1 mg/kg pour on in Imwitor 988+Miglyol 840

O=C(Nc1ccc(F)cc1F)c1cc(NC(=O)[C@H]2[C@H](c3ccc(F)c(Cl)c3)C2(Cl)Cl)ccc1Cl [Compound 197]
70/72: active against ticks up to (efficacy ≥80 percent) ([4]; 10 mg/kg topical spot-on)
100%: effective in treating existing tick infestations (Dermacenter variabilis) | inhibition at 0.001 µM ([3]; 24 h) | effective in treating existing tick infestations [5]
longer duration of efficacy: duration of efficacy, subcutaneous compared with oral administration ([6]; 5 mg/kg, ticks and bed bugs)
2 days: onset of efficacy (first Day with efficacy ≥80 percent) (Rhipicephalus microplus; [18])
80%: inhibition in vivo at 5 mg/kg (Lepeophtheirus salmonis; read-out: therapeutic efficacy against (pre-)adult sea lice (% reduction vs control))
activity: activity against bed bugs (≥80% inhibition, killed+damaged) ([2]; 5 mg/kg oral, after 7 days) | activity against bed bugs (≥80% inhibition, killed+damaged) [2, 16] | activity against bed bugs (≥80% inhibition, killed+damaged) [2, 17] | activity against tick nymphs (≥80% inhibition, killed+damaged) ([6]; 5 mg/kg oral, after 7 days) | activity against tick nymphs (≥80% inhibition, killed+damaged) [6, 16] | activity against tick nymphs (≥80% inhibition, killed+damaged) [6, 17]
immediate activity: activity against bed bugs (≥80% inhibition, killed+damaged) ([2]; 5 mg/kg oral, Day 0) | activity against bed bugs (≥80% inhibition, killed+damaged) ([2]; 5 mg/kg subcutaneous, Day 0) | activity against tick nymphs (≥80% inhibition, killed+damaged) ([6]; 5 mg/kg oral, Day 0) | activity against tick nymphs (≥80% inhibition, killed+damaged) ([6]; 5 mg/kg subcutaneous, Day 0)
active: therapeutic efficacy against ticks (active = efficacy ≥80 percent) ([4]; 10 mg/kg oral)
≥ 120 days: duration of efficacy (last Day with efficacy ≥80 percent) (Rhipicephalus microplus; 1 mg/kg subcutaneous)
therapeutic efficacy: efficacy ≥80 percent against Dermacenter variabilis (Dermacenter variabilis; [11]) | efficacy ≥80 percent against Dermacenter variabilis (Dermacenter variabilis; [15]) | efficacy against ticks in dogs (conclusion) [4] | efficacy ≥80 percent against Rhipicephalus appendiculatus [5, 11] | efficacy ≥80 percent against Rhipicephalus appendiculatus [5, 15]
prophylactic efficacy: efficacy ≥80 percent against Dermacenter variabilis (Dermacenter variabilis; [7]) | efficacy ≥80 percent against Dermacenter variabilis (Dermacenter variabilis; [8]) | efficacy ≥80 percent against Dermacenter variabilis (Dermacenter variabilis; [9]) | efficacy ≥80 percent against Dermacenter variabilis (Dermacenter variabilis; [10]) | efficacy ≥80 percent against Dermacenter variabilis (Dermacenter variabilis; [12]) | efficacy ≥80 percent against Dermacenter variabilis (Dermacenter variabilis; [13]) | efficacy ≥80 percent against Dermacenter variabilis (Dermacenter variabilis; [14]) | efficacy ≥80 percent against Rhipicephalus appendiculatus [5, 7] | efficacy ≥80 percent against Rhipicephalus appendiculatus [5, 8] | efficacy ≥80 percent against Rhipicephalus appendiculatus [5, 9] | efficacy ≥80 percent against Rhipicephalus appendiculatus [5, 10] | efficacy ≥80 percent against Rhipicephalus appendiculatus [5, 19] | efficacy ≥80 percent against Rhipicephalus appendiculatus [5, 12] | efficacy ≥80 percent against Rhipicephalus appendiculatus [5, 13] | efficacy ≥80 percent against Rhipicephalus appendiculatus [5, 14] | efficacy ≥80 percent against Rhipicephalus appendiculatus [5, 20] | efficacy ≥80 percent against Rhipicephalus appendiculatus [5, 21]
3 days: onset of efficacy (first Day with efficacy ≥80 percent) (Rhipicephalus microplus; 1 mg/kg subcutaneous)
10 to 25 nM: EC50 [1]
47 days: duration of efficacy (last Day with efficacy ≥80 percent) (Rhipicephalus microplus; [18])

O=C(Nc1ncc(F)cc1F)c1cc(NC(=O)[C@H]2[C@H](c3cc(Cl)cc(Cl)c3)C2(Cl)Cl)ccc1Cl [Compound 453]
active: therapeutic efficacy against ticks (active = efficacy ≥80 percent) ([4]; 10 mg/kg oral) | therapeutic efficacy against ticks (active = efficacy ≥80 percent) ([4]; 10 mg/kg topical spot-on)
≤ 10 nM: EC50 ([1]; pre-adults/adults, assessed after ~1 and 24 h)
70/72: active against ticks up to (efficacy ≥80 percent) ([4]; 10 mg/kg topical spot-on)
82 days: duration of efficacy (last Day with efficacy ≥80 percent) (Rhipicephalus microplus; 1 mg/kg subcutaneous)
84 days: duration of efficacy (last Day with efficacy ≥80 percent) (Rhipicephalus microplus; 1 mg/kg pour on in Miglyol 840)
3 days: onset of efficacy (first Day with efficacy ≥80 percent) (Rhipicephalus microplus; 1 mg/kg subcutaneous) | onset of efficacy (first Day with efficacy ≥80 percent) (Rhipicephalus microplus; [18])
63 days: duration of efficacy (last Day with efficacy ≥80 percent) (Rhipicephalus microplus; [18])
77 days: duration of efficacy (last Day with efficacy ≥80 percent) (Rhipicephalus microplus; [23])
immediate activity: activity against bed bugs (≥80% inhibition, killed+damaged) ([2]; 5 mg/kg oral, Day 0) | activity against bed bugs (≥80% inhibition, killed+damaged) ([2]; 5 mg/kg subcutaneous, Day 0) | activity against tick nymphs (≥80% inhibition, killed+damaged) ([6]; 5 mg/kg oral, Day 0) | activity against tick nymphs (≥80% inhibition, killed+damaged) ([6]; 5 mg/kg subcutaneous, Day 0)
100%: effective in treating existing tick infestations (Dermacenter variabilis) | effective to control bed bugs [2, 22] | inhibition in vivo at 5 mg/kg (Lepeophtheirus salmonis; read-out: therapeutic efficacy against (pre-)adult sea lice (% reduction vs control), salmon, 5 mg/kg once by gavage, day -28 infestation, counted day 7) | inhibition at 0.001 µM ([3]; 1 nM in seawater, ~24 h) | effective in treating existing tick infestations [5] | effective to control ticks [6, 22]
2 days: onset of efficacy (first Day with efficacy ≥80 percent) (Rhipicephalus microplus; 1 mg/kg pour on in Miglyol 840)
activity: activity against bed bugs (≥80% inhibition, killed+damaged) ([2]; 5 mg/kg oral, after 7 days) | activity against bed bugs (≥80% inhibition, killed+damaged) ([2]; 5 mg/kg oral, after 10 days) | activity against bed bugs (≥80% inhibition, killed+damaged) [2, 16] | activity against bed bugs (≥80% inhibition, killed+damaged) [2, 17] | activity against tick nymphs (≥80% inhibition, killed+damaged) ([6]; 5 mg/kg oral, after 7 days) | activity against tick nymphs (≥80% inhibition, killed+damaged) ([6]; 5 mg/kg oral, after 10 days) | activity against tick nymphs (≥80% inhibition, killed+damaged) [6, 16] | activity against tick nymphs (≥80% inhibition, killed+damaged) [6, 17]
prophylactic efficacy: efficacy ≥80 percent against Dermacenter variabilis (Dermacenter variabilis; [7]) | efficacy ≥80 percent against Dermacenter variabilis (Dermacenter variabilis; [8]) | efficacy ≥80 percent against Dermacenter variabilis (Dermacenter variabilis; [9]) | efficacy ≥80 percent against Dermacenter variabilis (Dermacenter variabilis; [10]) | efficacy ≥80 percent against Dermacenter variabilis (Dermacenter variabilis; [19]) | efficacy ≥80 percent against Dermacenter variabilis (Dermacenter variabilis; [12]) | efficacy ≥80 percent against Dermacenter variabilis (Dermacenter variabilis; [13]) | efficacy ≥80 percent against Dermacenter variabilis (Dermacenter variabilis; [14]) | efficacy ≥80 percent against Dermacenter variabilis (Dermacenter variabilis; [20]) | efficacy ≥80 percent against Dermacenter variabilis (Dermacenter variabilis; [21]) | efficacy ≥80 percent against Rhipicephalus appendiculatus [5, 7] | efficacy ≥80 percent against Rhipicephalus appendiculatus [5, 8] | efficacy ≥80 percent against Rhipicephalus appendiculatus [5, 9] | efficacy ≥80 percent against Rhipicephalus appendiculatus [5, 10] | efficacy ≥80 percent against Rhipicephalus appendiculatus [5, 19] | efficacy ≥80 percent against Rhipicephalus appendiculatus [5, 12] | efficacy ≥80 percent against Rhipicephalus appendiculatus [5, 13] | efficacy ≥80 percent against Rhipicephalus appendiculatus [5, 14] | efficacy ≥80 percent against Rhipicephalus appendiculatus [5, 20] | efficacy ≥80 percent against Rhipicephalus appendiculatus [5, 21]
1 days: onset of efficacy (first Day with efficacy ≥80 percent) (Rhipicephalus microplus; [23])
therapeutic efficacy: efficacy ≥80 percent against Dermacenter variabilis (Dermacenter variabilis; [11]) | efficacy ≥80 percent against Dermacenter variabilis (Dermacenter variabilis; [15]) | efficacy against ticks in dogs (conclusion) [4] | efficacy ≥80 percent against Rhipicephalus appendiculatus [5, 11] | efficacy ≥80 percent against Rhipicephalus appendiculatus [5, 15]
